Each compound was assayed against T1, human PAD4 (Homo sapiens, UniProt Q9UM07) (assay: In vitro PAD4 BAEE biochemical assay). Conditions: BAEE substrate 3 mM, 5 nM PAD4, 2 mM calcium chloride; geometric mean of multiple experiments.
T1 construct: human PAD4 (NM_012387), A2-P663, was PCR amplified; His-SUMO (N, cleaved yes); made in house; host or cells: E. coli BL21(DE3)
Procedure, shortened: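 Ammonia produced by BAEE deimination (3 mM substrate, 2 h, 25 °C) was read as fluorescent isoindole after o-phthalaldehyde/DTT derivatization, ex 405 nm/em 535 nm. Human PAD4 at 5 nM final, 2 mM calcium, pH 7.6 MOPS; compound preincubated 30 min. IC50s, normalized to BB-Cl-Amidine and DMSO controls, were geometric-mean averaged.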

T1 sequence (Q9UM07 2-663): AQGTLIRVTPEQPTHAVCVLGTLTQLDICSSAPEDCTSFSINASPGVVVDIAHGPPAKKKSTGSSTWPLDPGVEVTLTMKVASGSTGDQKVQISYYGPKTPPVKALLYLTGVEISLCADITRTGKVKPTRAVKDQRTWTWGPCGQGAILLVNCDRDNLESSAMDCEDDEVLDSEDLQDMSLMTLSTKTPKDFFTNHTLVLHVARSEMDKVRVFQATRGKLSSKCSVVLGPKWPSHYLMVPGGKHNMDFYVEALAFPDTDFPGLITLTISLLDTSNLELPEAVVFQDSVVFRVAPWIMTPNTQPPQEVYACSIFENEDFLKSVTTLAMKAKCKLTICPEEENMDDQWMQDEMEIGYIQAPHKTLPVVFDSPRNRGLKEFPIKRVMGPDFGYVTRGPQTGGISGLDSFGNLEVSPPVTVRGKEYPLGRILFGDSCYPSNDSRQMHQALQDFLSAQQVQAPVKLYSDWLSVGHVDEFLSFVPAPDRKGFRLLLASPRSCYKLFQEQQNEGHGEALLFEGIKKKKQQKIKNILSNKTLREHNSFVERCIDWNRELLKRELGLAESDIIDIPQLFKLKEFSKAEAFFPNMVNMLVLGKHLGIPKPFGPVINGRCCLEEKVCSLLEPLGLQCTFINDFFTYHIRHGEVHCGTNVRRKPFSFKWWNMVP

| Compound | IC50 |
| --- | --- |
| COc1cc(C(=O)N2C[C@H]3CC[C@@H]2[C@@H]3N)cc2nc(-c3cc4ccc5nc4n3CCCCCCC(C)(C)C(=O)N[C@@H]5C)n(C)c12 [Example 13, (11~{R})-17-[5-[(1~{R},4~{R},7~{R})-7-amino-2-azabicyclo[2.2.1]heptane-2-carbonyl]-7-methoxy-1-methyl-benzimidazol-2-yl]-8,8,11-trimethyl-1,10,19-triazatricyclo[10.5.2.0^{15,18}]nonadeca-12(19),13,15(18),16-tetraen-9-one] | 121 nM |
| COc1cc(C(=O)N2CC[C@@H](OCC(F)F)[C@@H](N)C2)cc2nc(-c3cc4ccc5nc4n3CCCCCCC(C)(C)C(=O)N[C@@H]5C)n(C)c12 [Example 14, (11~{R})-17-[5-[(3~{S),4~{R})-3-amino-4-(2,2-difluoroethoxy)piperidine-1-carbonyl]-7-methoxy-1-methyl-benzimidazol-2-yl]-8,8,11-trimethyl-1,10,19-triazatricyclo[10.5.2.0^{15,18}]nonadeca-12(19),13,15(18),16-tetraen-9-one] | 121 nM |
| COc1cc(C(=O)N2CCC[C@@H](N)[C@H]2C)cc2nc(-c3cc4ccc5nc4n3CCCCCCC(C)(C)C(=O)N[C@@H]5C)n(C)c12 [Example 15, (11~{R})-17-[5-[(2~{R},3~{R})-3-amino-2-methyl-piperidine-1-carbonyl]-7-methoxy-1-methyl-benzimidazol-2-yl]-8,8,11-trimethyl-1,10,19-triazatricyclo[10.5.2.0^{15,18}]nonadeca-12(19),13,15(18),16-tetraen-9-one] | 60 nM |
| COc1cc(C(=O)N2CCC[C@@H](N)C2)cc2nc(-c3cc4ccc5nc4n3CCCCCCC(C)(C)C(=O)N[C@@H]5C)n(C)c12 [Example 16, (11~{R})-17-[5-[(3~{R})-3-aminopiperidine-1-carbonyl]-7-methoxy-1-methyl-benzimidazol-2-yl]-8,8,11-trimethyl-1,10,19-triazatricyclo[10.5.2.0^{15,18}]nonadeca-12(19),13,15(18),16-tetraen-9-one] | 67 nM |
| COc1cc(C(=O)N2CCC[C@@H](N)C2)cc2nc(-c3cc4ccc5nc4n3CCCCCOCC(C)(C)C(=O)N[C@@H]5C)n(C)c12 [Example 17, (12~{R})-18-[5-[(3~{R})-3-aminopiperidine-1-carbonyl]-7-methoxy-1-methyl-benzimidazol-2-yl]-9,9,12-trimethyl-7-oxa-1,11,20-triazatricyclo[11.5.2.0^{16,19}]icosa-13(20),14,16(19),17-tetraen-10-one] | 74 nM |
| COc1cc(C(=O)N2CCC[C@@H](N)C2)cc2nc(-c3cc4ccc5nc4n3CCCCCOC(C)(C)C(=O)N[C@@H]5C)n(C)c12 [Example 18, (11~{R})-17-[5-[(3~{R})-3-aminopiperidine-1-carbonyl]-7-methoxy-1-methyl-benzimidazol-2-yl]-8,8,11-trimethyl-7-oxa-1,10,19-triazatricyclo[10.5.2.0^{15,18}]nonadeca-12(19),13,15(18),16-tetraen-9-one] | 85 nM |
| COc1cc(C(=O)N[C@H]2CNCC[C@@H]2F)cc2nc(-c3cc4ccc5nc4n3CCCCCOC(C)(C)C(=O)N[C@@H]5C)n(C)c12 [Example 19, ~{N}-[(3~{S},4~{S})-4-fluoro-3-piperidyl]-7-methoxy-1-methyl-2-[(11~{R})-8,8,11-trimethyl-9-oxo-7-oxa-1,10,19-triazatricyclo[10.5.2.0^{15,18}]nonadeca-12(19),13,15(18),16-tetraen-17-yl]benzimidazole-5-carboxamide] | 76 nM |
| COc1cc(C(=O)N2[C@H]3CC[C@@H]2[C@H](N)C3)cc2nc(-c3cc4ccc5nc4n3CCCCCCC(C)(C)C(=O)N[C@@H]5C)n(C)c12 [Example 20, (11~{R})-17-[5-[(1~{R},2~{R},4~{S})-2-amino-7-azabicyclo[2.2.1]heptane-7-carbonyl]-7-methoxy-1-methyl-benzimidazol-2-yl]-8,8,11-trimethyl-1,10,19-triazatricyclo[10.5.2.0^{15,18}]nonadeca-12(19),13,15(18),16-tetraen-9-one] | 62 nM |
| COc1cc(C(=O)N2[C@H]3CC[C@@H]2[C@H](N)C3)cc2nc(-c3cc4ccc5nc4n3CCCCCOC(C)(C)C(=O)N[C@@H]5C)n(C)c12 [Example 21, (11~{R})-17-[5-[(1~{R},2~{R},4~{S})-2-amino-7-azabicyclo[2.2.1]heptane-7-carbonyl]-7-methoxy-1-methyl-benzimidazol-2-yl]-8,8,11-trimethyl-7-oxa-1,10,19-triazatricyclo[10.5.2.0^{15,18}]nonadeca-12(19),13,15(18),16-tetraen-9-one] | 63 nM |
| COc1cc(C(=O)N2[C@H]3CC[C@@H]2[C@H](N)C3)cc2nc(-c3cc4ccc5nc4n3CCCCCOCC(C)(C)C(=O)N[C@@H]5C)n(C)c12 [Example 22, (12~{R})-18-[5-[(1~{R},2~{R},4~{S})-2-amino-7-azabicyclo[2.2.1]heptane-7-carbonyl]-7-methoxy-1-methyl-benzimidazol-2-yl]-9,9,12-trimethyl-7-oxa-1,11,20-triazatricyclo[11.5.2.0^{16,19}]icosa-13(20),14,16(19),17-tetraen-10-one] | 62 nM |
| COc1cc(C(=O)N2[C@H]3CC[C@@H]2[C@H](N)C3)cc2nc(-c3cc4ccc5nc4n3C/C=C\CCCCS(=O)(=O)N[C@@H]5C)n(C)c12 [Example 23, [(1˜{R},2˜{R},4˜{S})-2-amino-7-azabicyclo[2.2.1]heptan-7-yl]-[7-methoxy-1-methyl-2-[(11˜{R})-11-methyl-9,9-dioxo-9$1^6-thia-1,10,19-triazatricyclo[10.5.2.0^{15,18}]nonadeca-3,12(19),13,15(18),16-pentaen-17-yl]benzimidazol-5-yl]methanone] | 40 nM |
| COc1cc(C(=O)N2[C@H]3CC[C@@H]2[C@H](N)C3)cc2nc(-c3cc4ccc5nc4n3CCC/C=C/c3ccccc3C(=O)N[C@@H]5C)n(C)c12 [Example 24, (2~{R},11~{E})-17-[5-[(1~{R},2~{R},4~{S})-2-amino-7-azabicyclo[2.2.1]heptane-7-carbonyl]-7-methoxy-1-methyl-benzimidazol-2-yl]-2-methyl-3,16,22-triazatetracyclo[14.5.2.0^{5,10}.0^{19,23}] tricosa-1(22),5,7,9,11,17,19(23),20-octaen-4-one] | 56 nM |
| COc1cc(C(=O)N2CCC[C@@H](N)C2)cc2nc(-c3cc4ccc5nc4n3CCCCCCc3cn(nn3)C5C)n(C)c12 (some centres unmarked) [Example 25, [(3˜{R})-3-amino-1-piperidyl]-[7-methoxy-1-methyl-2-(2-methyl-3,4,5,13,19-pentazatetracyclo[11.5.2.1^{3,6}.0^{16,20}]henicosa-1(19),4,6(21),14,16(20),17-hexaen-14-yl)benzimidazol-5-yl]methanone] | 775 nM |
| COc1cc(C(=O)N2CCC[C@@H](N)C2)cn2nc(-c3cc4ccc5nc4n3CCCCCCCC(=O)N[C@@H]5C)c(C)c12 [Example 26, (11~{R})-17-[6-[(3~{R})-3-aminopiperidine-1-carbonyl]-4-methoxy-3-methyl-pyrazolo[1,5-a]pyridin-2-yl]-11-methyl-1,10,19-triazatricyclo[10.5.2.0^{15,18}]nonadeca-12(19),13,15(18),16-tetraen-9-one] | 86 nM |
